Experimental data as given in patent US20120165576A1, “USE OF ERYTHRITOL FOR THE PREVENTION OR TREATMENT OF HYPERTENSION” (priority 2009, published 2012).
“Also recorded” adds a separate entry of the source. Read-outs that look alike come from different tables or passages of the source. Marks after values point to notes of the source that are not given here.

Columns and labels:
[1] = tested on: sections of thoracic aorta (aortic rings); experiment: Aorta reactivity measurements: isolated aortic rings of rats after 21 days of erythritol in drinking water; assay type: in vivo, Wistar rats; details: for CAR: relaxation induced by 100 μM carbachol / PE: Contraction induced by 10 μM phenylephrine / SNP: Relaxation induced by 100 μM SNP after stable response to 100 μM carbachol / Tot. relax: Relaxation induced by 100 μM carbachol followed by 100 μM SNP / SNP fraction: Contribution of 100 μM SNP to the total relaxation: 1 g erythritol/kg/day in drinking water, 21 days, mean ± SEM
[2] = tested on: red blood cell suspension; experiment: AAPH-induced hemolysis of a red blood cell suspension; assay type: cell-based; details: erythritol 0-50 mM, AAPH 50 mM, 37° C., FIG. 3
[3] = tested on: manganese superoxide dismutase (SOD2); experiment: SOD2 expression in endothelial cells by qPCR; assay type: cell-based; details: human umbilical vein endothelial cells (CRL-1730), erythritol 5 mM, 24 hours
Procedure: The exposure of endothelial cells to erythritol results in a increase in manganese superoxide dismutase (SOD2) transcription (FIG. 4). Cultured human umbilical vein endothelial cells (CRL-1730, which are available from ATCC) were incubated under standard conditions with erythritol (5 mM, 24 hours). Exposure to erythritol induced or stimulated a 9.4 fold increase in the expression of SOD2 as determined by qPCR (FIG. 4).
After incubation, RNA was isolated from Qiazol suspended cells according to the manufacturer's protocol and quantified using a nanodrop. Reverse transcription reaction was performed using 500 ng of total RNA, which was reverse-transcribed into cDNA using iScript™ cDNA synthesis kit. Next, real time PCR was performed with a BioRad MyiQ iCycler Single Color RT-PCR detection system using Sensimix™ Plus SYBR and Fluorescein, 5 μl diluted (10×) cDNA, and 0.3 μM primers in a total volume of 25 μl. PCR was conducted as follows: denaturation at 95° C. for 3 minutes, followed by 40 cycles of 95° C. for 15 seconds and 60° C. for 45 seconds. After PCR a melt curve (60-95° C.) was produced for product identification and purity. β-actin was included as internal control. Data were analysed using the MyIQ software system (Biorad) and were expressed as relative gene expression (fold change) using the 2^ΔΔCt method.

[4] = cited from earlier work
[5] = cited from earlier work; remark: listed apart in the source
[6] = group DE: STZ diabetic rats, N = 4
[7] = group NE: normoglycemic rats, N = 5
[8] = clinical testing, oral consumption

Q: Which “Relaxation response of aortic rings to carbachol (in words)” value ([1]; diabetic rats consuming erythritol (DE), 1 g/kg/day, compared with normoglycemic rats) does the source give for OCC(O)C(O)CO (stereo not shown) [erythritol, 1,2,3,4-butanetetrol] here?
A: Its value is “essentially the same as the relaxation response of normoglycemic rats; also recorded: identical to that observed in the normoglycemic rats; also recorded: higher and at the same level as found in the aortic rings of the rats of groups N and NE”.

Q: And the “CAR: relaxation induced by 100 μM carbachol” value [1, 6]?
A: Its value is 0.61 ± 0.07 g.

Q: What about the “PE: Contraction induced by 10 μM phenylephrine” value [1, 6] of the same molecule?
A: The value was 0.60 ± 0.07 g.

Q: And the “SNP: Relaxation induced by 100 μM SNP after stable response to 100 μM carbachol” value [1, 6]?
A: The value was 0.14 ± 0.03 g.

Q: What about the “Tot. relax: Relaxation induced by 100 μM carbachol followed by 100 μM SNP” value [1, 6] of the same molecule?
A: The value was 0.75 ± 0.09 g.

Q: And the “SNP fraction: Contribution of 100 μM SNP to the total relaxation” value ([1]; group DE: STZ diabetic rats, N = 4, p < 0.05 compared to D)?
A: The value was 17.8 ± 3.1^b %.

Q: What about the “CAR: relaxation induced by 100 μM carbachol” value [1, 7] of the same molecule?
A: Its value is 0.60 ± 0.07 g.

Q: What about the “PE: Contraction induced by 10 μM phenylephrine” value [1, 7] of the same molecule?
A: The value was 0.70 ± 0.06 g.

Q: What about the “SNP fraction: Contribution of 100 μM SNP to the total relaxation” value [1, 7] of the same molecule?
A: The value was 24.7 ± 5.5^ %.

Q: What about the “SNP: Relaxation induced by 100 μM SNP after stable response to 100 μM carbachol” value [1, 7] of the same molecule?
A: The value was 0.21 ± 0.06 g.

Q: What about the “Tot. relax: Relaxation induced by 100 μM carbachol followed by 100 μM SNP” value [1, 7] of the same molecule?
A: The value was 0.81 ± 0.09 g.

Q: And the “Effect on carbachol concentration-response curve (in words)” value ([1]; normoglycemic rats consuming erythritol (NE), 1 g/kg/day, FIG. 1)?
A: Its value is “did not have a significant effect”.

Q: And the “Inhibition of AAPH-induced hemolysis (in words)” value [2]?
A: Its value is “inhibited hemolysis in a concentration-dependent manner”.

Q: And the “Lagtime (t50, time to reach 50% hemolysis) of AAPH-induced hemolysis (in words)” value [2]?
A: The value was “concentration-dependently shifted the curve to the right; also recorded: concentration-dependent increase”.

Q: What about the “Increase in the expression of SOD2 as determined by qPCR” value [3] of the same molecule?
A: The value was 9.4 fold.

Q: What about the “Time until excretion with the urine is complete” value ([4]; after administration) of the same molecule?
A: The value was “about 3 days”.

Q: What about the “Systemic metabolism (in words)” value ([4]; in vivo) of the same molecule?
A: The value was “not systemically metabolized”.

Q: And the “Absorption from the gut (in words)” value ([4]; oral)?
A: Its value is “rapidly and virtually completely absorbed”.

Q: What about the “Well tolerated bolus (single) dose” value [5, 8] of the same molecule?
A: Its value is “up to 50 grams”.

Q: What about the “Well tolerated daily dose” value [5, 8] of the same molecule?
A: Its value is “up to 80 grams”.

Q: And the “Well tolerated bolus (single) dose” value ([5]; clinical testing, oral consumption, listed as Erythritol)?
A: The value was ≤ 50 grams.

Q: What about the “Digestive side-effects (in words)” value ([5]; even after consumption of large quantities) of the same molecule?
A: Its value is “no digestive side-effects”.
